Reference: patent US12702148B2, “Acetylcholinesterase inhibitor” (Taiko Pharmaceutical Co., Ltd., priority 2019, dated 2026)
pIC50: −log10 of the molar value. Like-named read-outs stand apart in the source and are kept apart here.

Key:
[1] = molecular target: T1, Acetylcholinesterase from Electrophorus electricus (electric eel) Type VI-S (Electrophorus electricus, UniProt O42275); assay: biochemical
T1 construct: purchased Sigma-Aldrich C3389-500UN
Description: 2. Reagents 2.1 AchE Enzyme • Name: Acetylcholinesterase from Electrophorus electricus (electric eel) Type VI-S • Serial number: C3389-500UN • Obtained from: Sigma-Aldrich • Storage condition: Frozen (−20° C.) 2.2 AchE Activity Measurement Kit • Name: Acetylcholinesterase Activity Assay Kit • Serial number: MAK119 • Obtained from: Sigma-Aldrich • Storage condition: Room temperature 2.3 Solvent • Name: UltraPure 1M Tris-HCL pH 7.5 • Serial number: 15567-027 • Obtained from: Invitrogen • Storage condition: Refrigerated (4° C.) 2.4 Water
AchE enzyme (lyophilized powder) 2 mg (500 units) was dissolved in 2 mL of Tris-HCL Buffer pH 7.5 prepared to a concentration of 20 mM. This was then further diluted 30-folds with ultrapure water to prepare to a concentration of 33.3 μg/mL.
Two mg of the reagent included in the AchE activity measurement kit was weighed, dissolved in 200 mL of the assay buffer, and the working solution was obtained.
Measurement was carried out according to the following order. • 1) AchE enzyme solution (33.3 μg/mL) is mixed with test substance 1 solution (5 mg/mL) and ultrapure water according to the following Table 1.
(§1) • 2) The mixture is allowed to react in a thermobath at 37° C. for 10 minutes. • 3) 200 μL each of ultrapure water is added to 4 wells (n=4) of a 96-well microplate (blank wells.) • 4) 200 μL each of the calibrator included in the AchE activity measurement kit is added to 4 wells (n=4) different from those in Procedure 3) (calibrator wells.) • 5) 190 μL each of the working solution is added to yet another 24 wells (6 samples×4) (sample wells.) • 6) To the wells with the working solution added, 10μ each of post-reaction solutions No. 1-6 obtained in Procedure 2) is added to 4 wells (n=4) each. • 7) The plates are lightly tapped to allow mixing, reacted for 2 minutes at room temperature, and then absorbance at 412 nm is read with a microplate reader. • 8) This is allowed to react for another 8 minutes at room temperature (a total of 10 minutes), and then the absorbance at 412 nm is measured.
Measurement was carried out according to the following order. • 1) AchE enzyme solution (33.3 μg/mL) is mixed with test substance 2 solution (800 μg/mL) and ultrapure water according to the following Table 2.
as §1, with “measured. 6. Data Processing” for “measured.”
Employing the absorbance values obtained, the AchE activity (units/mL) was calculated by the formula below, and the average value and standard deviation of the AchE activity (units/mL) for each test substance at each concentration was calculated.
[formula] • (A412) final: Absorbance value at 412 nm after 10 minutes of reaction • (A412) initial Absorbance value at 412 nm after 2 minutes of reaction • n: Dilution coefficient (n=120) 0.2: Coefficient by Calibrator
Moreover, employing the AchE activity for the test substance at each concentration, One phase exponential decay curve was obtained by GraphPad Prism, and the IC50 value (mg/mL) was calculated.

[2] = molecular target: T1, Acetylcholinesterase from Electrophorus electricus (electric eel) Type VI-S; format: biochemical; conditions: n=3, average value

T1 sequence (O42275 24-633): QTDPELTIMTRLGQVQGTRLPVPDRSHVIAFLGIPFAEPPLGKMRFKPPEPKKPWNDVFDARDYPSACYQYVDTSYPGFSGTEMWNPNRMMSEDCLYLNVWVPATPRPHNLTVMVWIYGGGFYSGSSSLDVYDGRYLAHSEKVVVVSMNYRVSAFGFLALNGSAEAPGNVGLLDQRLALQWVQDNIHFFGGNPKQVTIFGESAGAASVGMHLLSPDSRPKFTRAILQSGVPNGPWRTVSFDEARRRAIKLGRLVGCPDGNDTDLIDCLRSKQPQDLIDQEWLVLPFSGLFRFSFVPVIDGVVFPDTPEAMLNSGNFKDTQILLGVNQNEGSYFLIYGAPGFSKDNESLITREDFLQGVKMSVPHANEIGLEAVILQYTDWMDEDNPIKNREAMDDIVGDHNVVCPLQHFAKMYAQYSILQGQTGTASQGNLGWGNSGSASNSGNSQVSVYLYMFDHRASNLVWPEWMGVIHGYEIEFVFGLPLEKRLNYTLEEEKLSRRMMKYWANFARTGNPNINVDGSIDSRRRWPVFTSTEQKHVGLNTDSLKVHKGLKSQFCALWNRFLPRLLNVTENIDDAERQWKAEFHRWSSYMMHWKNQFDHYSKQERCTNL

COc1ccccc1O [GUA, Guaiacol]
IC50 ([1]; nonlinear regression curve of AchE activity at each concentration (GraphPad Prism), read-out: IC50 value (converted)): 137 mM | inhibition at 200 µM ([1]; read-out: Inhibitory rate): 3% | inhibition at 700 µM ([1]; read-out: Inhibitory rate): 3.9% | inhibition at 2000 µM ([1]; read-out: Inhibitory rate): 2.2% | inhibition at 7000 µM ([1]; read-out: Inhibitory rate): 19.9% | inhibition at 20000 µM ([1]; read-out: Inhibitory rate): 58.8% | pIC50 ([1]; regression curve by GraphPad Prism, Example 2, read-out: IC50): 1.77 | AchE activity ([2]; GUA concentration 0.2 mM): 24.89 units/mL | AchE activity ([2]; GUA concentration 0.7 mM): 24.64 units/mL | AchE activity ([2]; GUA concentration 2 mM): 25.09 units/mL | AchE activity ([2]; GUA concentration 7 mM): 20.54 units/mL | AchE activity ([2]; GUA concentration 20 mM): 10.56 units/mL
